The values that follow come from article PMC10419252, “Synthesis, Properties, and Biomedical Application of Dicationic Gemini Surfactants with Dodecane Spacer and Carbamate Fragments” (International Journal of Molecular Sciences, 2023).

The nature of one data set: Conductometry. The class given is physicochemical. Particulars: 298 K. The method, then:
The electrical conductivity of the micellar solutions was determined on an InoLab Cond 7110 conductometer (WTW, Weilheim, Germany). For the experiment, surfactant solutions with a volume of 10 mL were prepared. The electrical conductivity of all solutions was recorded at 298 K, and the electrode was washed with purified water after each measurement. The cmc was determined from the breakpoint of the dependence of electrical conductivity on the concentration of surfactants.

Data set [1] is described as follows: Electrode potential measurement with Br− selective electrode (potentiometry). It is filed as physicochemical. Particulars: 298 K. The method, then: The electrode potential measurements were performed for the Br^− counterion using the I-160MI laboratory ionomer (JSC Scientific and Production Association of the Measuring Equipment, Moscow, Russia). Br^− selective electrode (ELIS-131Br) and a reference electrode (ESr-10101) were used for measurement of the electromotive force (ΔE) of aqueous solution of surfactants (the concentration from 0.02 to 0.5 mM for 12-12-12(Et); from 0.002 to 0.05 mM for 14-12-14(Et)). To calibrate the ionomer, a series of KBr solutions were prepared in the concentration range of 0.1 mM to 100 mM.
β = 0.5(2Ct − CBr^−)/(Ct − cmc).

Another data set in a line: Pyrene fluorimetry. To be noted: 298 K. It is filed as physicochemical. The method, then: To determine cmc by fluorimetry, a hydrophobic probe pyrene was added to a series of surfactant solutions at a concentration of 1 μM. The solutions were kept for 30–40 min for complete solubilization of the probe. The fluorescent emission spectra of pyrene were recorded on an F-7100 fluorimeter (Hitachi, Tokyo, Japan) using 10 × 4 mm quartz cuvette (Hellma Analytics, Müllheim, Germany) with the following settings: λex = 335 nm, λem = 350–600 nm, and scanning speed = 1200 nm/min. The cmc was calculated from the dependence of the pyrene polarity index (the ratio of the intensities of the first (373 nm) and third (383 nm) peaks) on the surfactant concentration.

Data set [2] is described as follows: Orange OT solubilization, spectrophotometry (Schott method for Nagg). It is filed as physicochemical. The method, then: The cmc and the solubilizing capacity (S) of surfactants were determined using the spectral azo dye OOT and the non-steroidal anti-inflammatory drug IND. To obtain a saturated solution, an excess of OOT and IND was added to 2 mL of a surfactant solution, stirred, and kept for 48 and 24 h, respectively. After that, the solutions were filtered using Millex® Syringe Filters (Millipore, Burlington, MA, USA) with a pore size of 450 nm, and the optical density was measured. The absorption spectra were recorded on a Specord 250 Plus spectrophotometer (Analytik Jena AG, Jena, Germany). Quartz cells with a thickness of 1 and 0.5 cm (Hellma Analytics, Müllheim, Germany) were used for measurements.
The solubilizing capacity (S) was determined using the following formula:S = b/ε, where b is D/l = f (Csurf) dependency slope (above cmc), ε is the extinction coefficient (17,400 L/mol∙cm for OOT, and the extinction coefficients of IND are determined in GS solutions and presented in Figure S10).
The OOT solubilization method (Schott method) was used to calculate the micelle Nagg. The Nagg values were calculated for each point on the curve of dependence of the OOT-reduced optical density on the surfactant concentration above the cmc according to the presented formula:[…], where ε is the extinction coefficient of OOT, Csurf is the surfactant concentration above cmc, and D is the optical density.

Data set [3] deals with methicillin-resistant S. aureus MRSA-2 (resistant to beta-lactams). In words: Antimicrobial activity (MRSA-2). To be noted: Staphylococcus aureus, MRSA. The class given is cell-based. The method, then: (§1) The antimicrobial activity of the compounds was tested on Gram-positive Staphylococcus aureus ATCC 6538P FDA 209P (Sa), Bacillus cereus ATCC 10702 NCTC 8035 (Bc), Enterococcus faecalis ATCC 29212 (Ef), and Gram-negative bacteria Escherichia coli ATCC 25922 (Ec), Pseudomonas aeruginosa ATCC 9027 (Pa), including methicillin-resistant strains of S. aureus MRSA-1 (resistant to fluoroquinolones and beta-lactams) and MRSA-2 (resistant to beta-lactams). Antifungal activity was studied against Candida albicans ATCC 10231 (Ca), Trichophyton mentagrophytes var. gypseum 1773 (Tm), and Aspergillus niger BKMF-1119 (An). A more detailed description of the experiment is published in [21].

In data set [4] the test system is Escherichia coli ATCC 25922. In words: Antimicrobial activity (Ec). The class given is cell-based. To be noted: Escherichia coli. The method, then:
as §1

The test system of data set [5] is Pseudomonas aeruginosa ATCC 9027. In words: Antimicrobial activity (Pa). It is filed as cell-based. To be noted: Pseudomonas aeruginosa. The method, then:
as §1

Data set [6] relates to Candida albicans ATCC 10231. In words: Antifungal activity (Ca). The class given is cell-based. Particulars: Candida albicans. The method, then:
as §1

The test system of data set [7] is Trichophyton mentagrophytes var. gypseum 1773. In words: Antifungal activity (Tm). The class given is cell-based. To be noted: Trichophyton mentagrophytes. The method, then:
as §1

The test system of data set [8] is Aspergillus niger BKMF-1119. In words: Antifungal activity (An). It is filed as cell-based. Particulars: Aspergillus niger. The method, then: as §1
For data set [9], the target named is T1, human acetylcholinesterase (hAChE) (Homo sapiens, UniProt P22303).
T1 construct: purchased Sigma-Aldrich
T1 sequence (P22303 32-614): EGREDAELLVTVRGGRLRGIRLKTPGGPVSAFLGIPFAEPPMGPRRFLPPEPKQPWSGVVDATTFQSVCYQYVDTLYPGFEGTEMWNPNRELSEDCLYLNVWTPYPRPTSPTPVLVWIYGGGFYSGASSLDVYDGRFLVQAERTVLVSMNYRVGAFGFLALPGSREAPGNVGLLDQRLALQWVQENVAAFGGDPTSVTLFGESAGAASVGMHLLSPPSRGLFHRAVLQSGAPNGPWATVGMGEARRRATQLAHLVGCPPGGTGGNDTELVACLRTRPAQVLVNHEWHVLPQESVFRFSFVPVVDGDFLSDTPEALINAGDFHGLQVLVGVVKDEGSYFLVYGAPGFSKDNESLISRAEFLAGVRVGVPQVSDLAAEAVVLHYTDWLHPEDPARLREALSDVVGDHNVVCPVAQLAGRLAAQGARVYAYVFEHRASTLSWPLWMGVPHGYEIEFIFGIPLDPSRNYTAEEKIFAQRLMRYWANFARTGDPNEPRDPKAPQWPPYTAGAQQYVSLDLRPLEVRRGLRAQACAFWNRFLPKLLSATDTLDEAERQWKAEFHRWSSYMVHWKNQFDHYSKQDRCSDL
In words: biochemical. The method, then:
Stock solutions (0.01 M) of the compounds were dissolved in H2O. The inhibitory activity of compounds against hAChE and hBChE was measured using Ellman’s method. Enzyme-catalyzed hydrolysis was carried out in 0.1 M PBS (pH = 8.0) containing 0.1 nM hAChE or hBChE, 0.1 mM 5,5′-dithiobis-(2-nitrobenzoic acid) and 1mM acetylthiocholine or butyrylthiocholine as substrates. The tested compounds were incubated with the enzyme for 5 min prior to the addition of the substrate. Analyses were performed at 298 K using a Shimadzu UV-1800 spectrophotometer (Shimadzu Co., Kyoto, Japan) at 412 nm. The substrate hydrolysis rate was measured within 2 min. A sample without inhibitor was used as a control (100% cholinesterase activity). A sample without substrate was used as a blank. The experiments were conducted in triplicate. The percentage of enzyme inhibition was determined using OriginPro 8.5 software (OriginLab Corporation, Northampton, MA, USA) by plotting a percentage of the inhibition versus compound concentration. IC50 values (inhibitor concentration required to inhibit enzyme activity by 50%) were determined by the Hill equation: E/Emax=[I]^n/IC50n+[I]^n, where E is enzyme activity in the presence of the compound, and [I] is the compound concentration.

Molecules are shown by their SMILES. Where “and” joins values, the source holds several entries; their conditions need not be identical. Equal entries are not always repeated. Where two headings read alike, the source gives them in different places. Some results are limits rather than exact numbers.

In the case of `CCCCCCCCCCCCCC[N+](C)(CCCCCCCCCCCC[N+](C)(CCCCCCCCCCCCCC)CCOC(=O)NCC)CCOC(=O)NCC` (stereo not shown) [14-12-14(Et)], the cmccond in the data set “Conductometry” is 0.05 mM and 0.05 ± 0.0013 mM. In addition, the “βcond (degree of counterion binding)” value in the data set “Conductometry” is listed as 0.44. In addition, the “βpot (degree of counterion binding)” value in data set [1] was 0.3. The “cmc, Fluorimetry” value in “Pyrene fluorimetry” was 0.014 mM and 0.014 ± 0.0004 mM. In addition, the “S (solubilizing capacity), OOT” value is reported as 0.047 molOOT/molGS in data set [2] and 0.047 molprobe/molGS in data set [2] (298 K). Further, in [2] (OOT, 298 K), the “cmc, Spectrophotometry” value is on record as 0.045 ± 0.003 mM. The “Nagg (aggregation number)” value in data set [2] (Schott approach, OOT solubilization, 298 K) came out at 16. For the same compound, the MBC stood at 7.8 ± 0.7 µg/mL in data set [3] (read-out: MBC, MRSA-2); 31.3 ± 2.6 µg/mL in data set [4] (ATCC25922, read-out: MBC, Ec); 125 ± 10 µg/mL in [5] (ATCC9027, read-out: MBC, Pa). Further, the MIC in [3] (read-out: MIC, MRSA-2) is 7.8 ± 0.7 µg/mL; in [4] (ATCC25922, read-out: MIC, Ec) it was 31.3 ± 2.5 µg/mL; in data set [5] (ATCC9027, read-out: MIC, Pa) it was 125 ± 10 µg/mL; in [6] (ATCC10231, read-out: MIC, Ca) it was 250 ± 19 µg/mL; in [7] (read-out: MIC, Tm), 250 ± 19 µg/mL; in data set [8] (BKMF1119, read-out: MIC, An), over 250 µg/mL. For the same compound, the MFC is 250 ± 21 µg/mL in data set [6] (ATCC10231, read-out: MFC, Ca); 250 ± 18 µg/mL in data set [7] (read-out: MFC, Tm); over 250 µg/mL in data set [8] (BKMF1119, read-out: MFC, An). Besides, the IC50 in data set [9] turned out to be 11 ± 0.5 nM. Moreover, the “SIhBChE/hAChE (selectivity index)” value in data set [9] (IC50 hBChE / IC50 hAChE) is given as 131.

One may read the MBC as the lowest tested concentration that kills the bacteria rather than only halting them. The term MIC denotes the lowest concentration found to suppress growth. As a reminder, the MFC is the lowest tested concentration that kills the fungus rather than only halting it. As a reminder, the IC50 is the midpoint of a concentration-inhibition curve. Lower therefore signals higher potency.
